Measured values: US6037332A, “Method of urinary bladder instillation” (Emory University, priority 1997, dated 2000)

Assays:
[1] = tested on: epidermal growth factor (EGF) binding to T24 cells; test: 125I-EGF growth factor receptor binding to T24 cells; parameters: species or system human
Description: Method: Growth factor receptor binding studies were performed using T24 high grade human bladder tumor cell line. Cells were incubated with […] ^125 I-Insulin like growth factor-1 (^125 I-IGF-1) or ^125 I-epidermal growth factor (^125 I-EGF) and varying concentration of unlabeled growth factor or dextran sulfate in 1 ml of binding assay buffer. After incubation at 4° C. for 10 to 12 hours, the assay buffer was removed and the cultures washed three times. The cells and receptor-bound growth factors were then solubilized in 1 ml of […] before being quantitated in a gamma radiation counter.

[2] = tested on: human urinary bladder carcinoma cells; settings: Sorimachi et al. 1992; cited from earlier work
T24 cells = test: Proliferation of human transitional cell carcinoma cultures (crystal violet, A540 ratio day one/day eight); assay type: cell-based; settings: 10 mM dextran sulfate; day eight; p<0.0001
Description: Method: Cultures of two urothelial carcinoma cell lines, HT 1376 and T24 were obtained from the American Type Culture Collection and propagated in Dulbecco's Modified Eagles Medium (DMEM) supplemented with 10% fetal bovine serum (FBS). The HT1376 and T24 cells were plated into 96 well polystyrene trays in 0.1 ml of medium at densities of 5000 and 2500 cells/wells respectively. After overnight incubation, medium was replaced with DMEM containing various FBS and dextran sulfate concentrations. Each FBS and dextran sulfate concentration was tested in quadruplicated wells. On day eight the cells were fixed with glutaraldehyde, stained with 0.1% crystal violet and absorbance at 540 nm was quantitated in a (Bio-Rad) microplate spectrophotometer.
Results: The ratio of A540 values in day one and day eight was used to indicate cell proliferation.

[3] = tested on: MNU-induced rat bladder transitional cell carcinoma
Description: (1972) and modified by Steinberg, et al. (1990). Animals: Four to five week old female Fisher 344 rats (avg. Wt. 200 g) were used in all cohorts on this trial. All animals received 5 mg/200 g body weight intraperitoneal gentamicin (50 mg/ml) as antibacterial prophylaxis one hour prior to each bladder catheterization. MNU dose and schedule: 100 mg of MNU (Sigma, St. Louis, Mo.) were dissolved in 10 ml of sodium acetate (CH3 COONa), pH of a solution=6.5. Five mg/200 g body weight of this solution (0.5 ml) was instilled intravesically via a 22-gauge teflon angiocatheter under a continuous flow hood within 45 minutes of preparing the MNU solution every other week for a total of 4 doses (8 weeks). […] (Mol. Wt. 8000 Da.-Sigma, St. Louis, Mo.) Beginning at week four, 20 of the animals received intravesical dextran sulfate, 10 mg/200 g body weight twice a week for four weeks. The remaining 20 animals received saline on the same schedule. Tissue Preparations: The urinary bladder were excised, filled and fixed with 10% neutral buffered formalin, and then embedded in paraffin. The bladders were sectioned every 2 mm and 5-micron sections were stained with hematoxylin and eosin.

[4] = tested on: MNU induced bladder tumors; settings: intravesical, Fisher 344 rats; Graham et al. 1995; cited from earlier work

dextran sulfate
EGF binding ([1]; dextran sulfate 10 mM): 115 % of control
EGF binding ([1]; dextran sulfate 1-2 mM): 80 % of control binding
inhibitory effect on growth of human urinary bladder carcinoma cells in culture [2]: failed to observe an inhibitory effect
T24 cell proliferation inhibition (T24 cells): completely inhibited
prevention of development of transitional cell carcinoma of the bladder ([3]; intravesical, 10 mg/200 g body weight twice a week for four weeks, from week four): effectively prevents the development of transitional cell carcinoma of the bladder
side effects or histopathologic changes in urinary bladders ([3]; rat, in vivo): did not cause any significant side effects or histopathologic changes

Cc1ccc(C(=O)Nc2ccc(S(=O)(=O)O)c3cc(S(=O)(=O)O)cc(S(=O)(=O)O)c23)cc1NC(=O)c1cccc(NC(=O)Nc2cccc(C(=O)Nc3cc(C(=O)Nc4ccc(S(=O)(=O)O)c5cc(S(=O)(=O)O)cc(S(=O)(=O)O)c45)ccc3C)c2)c1 [Suramin]
in-vivo action on MNU induced bladder tumors [4]: intravesical inhibition of MNU induced bladder tumors
